Assay results as given in patent publication US20080194883A1, “Menthol-Containing Solids Composition” (SYMRISE GMBH & CO. KG, priority 2005, published 2008).

Experiments:
[1] = Solution test: time taken for complete dissolving in ethanol/water; type: physicochemical; conditions: 5 g in 95 g ethanol/water (equal weight contents), 20° C., stirred, optical determination
Experimental: The various rates of solution of a solids composition according to the invention according to Example 1a above and forms of I-menthol which are not according to the invention were compared.
For this, in each case 5 g I-menthol or 5 g of the I-menthol-containing solids composition according to the invention according to Example 1a were added to 95 g of a mixture, temperature-controlled at a constant 20° C., of equal weight contents of ethanol and water and the time taken for complete dissolving (optical determination) of the menthol and of the menthol-containing solids composition was determined.
The particular solution test was carried out in a glass beaker having a diameter of 5 cm and a filling height of 7 cm. The contents of the glass beaker were in each case stirred with a 4 cm long magnetic stirring fish at a magnetic stirrer speed of 4 revolutions per second during the solution test. The temperature was monitored with a Pt-100 thermometer, which was immersed 5 cm deep into the liquid, was placed at a distance of 1 cm from the glass beaker wall and simultaneously served as a baffle.
The size of the crystals here corresponded to the typical (commercially available) crystal geometry of natural I-menthol.

[2] = after 24 hours; cited from earlier work
[3] = Storage test for caking or formation of lumps (optical and mechanical flowability check); type: physicochemical; conditions: storage times of more than three months
Experimental: In this context, a solid menthol component consisting of bodies in the form of crystals or pressed pieces was employed. The menthol-containing solids composition according to the invention which was investigated remained convenient and reliable to handle and pourable, flowable and meterable over the entire observation period.
This menthol-containing solids composition was packed in a plastic bag in a cube-shaped box and stored at 20° C. (bulk height: 50 cm). Every 14 days, the composition according to the invention was investigated optically and mechanically for its flowability.
I-Menthol (25 kg) in the form of freshly prepared needle-shaped crystals (for the particle distribution, see Example 1) was initially introduced into a mixer and mixed briefly and intensively with various amounts of magnesium oxide (calculated average particle size: 12.8 nm, specific BET surface area: 130 m^2/g, compare Example 1a). The content of magnesium oxide (solid anticaking agent) in the total solids mixture was 0.5 wt. %, 1 wt. %, 2 wt. % or 4 wt. %. The original menthol crystals were comminuted by the mixing operation (compare Example 1a). The menthol-containing solids compositions having various contents of magnesium oxide were each packed in a plastic bag in a cube-shaped box and stored at 20° C. (bulk height: 50 cm). […]

SMILES | Time taken for complete dissolving [1] [s] | adhesion and formation of lumps on storage [2] | formation of lumps and caking on storage [3]
CC(C)[C@@H]1CC[C@@H](C)C[C@H]1O [Menthol crystals from Example 1, I-menthol] | 170 | – | –
CC(C)[C@@H]1CC[C@@H](C)C[C@H]1O [flaked I-menthol, I-menthol] | – | adhesion and formation of lumps | –
CC1CCC(C(C)C)C(O)C1 (stereo not drawn) [Menthol] | 504 | – | gradually form lumps and cake
CC(C)[C@@H]1CC[C@@H](C)C[C@H]1O [Crystals of natural menthol, I-menthol] | 255 | – | –
CC(C)[C@@H]1CC[C@@H](C)C[C@H]1O [Menthol crystals in lump form, obtained by storage of the me] [I-menthol] | 280 | – | –
